From US12435095B2, “Substituted morpholines as ATR kinase inhibitors” (Shanghai Annova Biotechnology Co., Ltd., priority 2021, dated 2025) come the findings set out here.

Each structure is given as a SMILES string. Where two headings read alike, the source gives them in different places.

The subject of the test is human colon cancer LoVo cells. As to the kind of experiment: Cell proliferation inhibition assay (CellTiter-Glo). The note with it: for IC50 / Emax: Homo sapiens; for IC50: read-out: LoVo IC50; for Emax: read-out: Max Inhibition. The format is cell-based. From the text:
Experimental method: A CellTiter-Glo cell viability assay kit was used to test the inhibitory effect of the compounds on the in vitro proliferation of human colon cancer LoVo cells.
Experimental materials: LoVo cells (ATCC, Cat. No. CCL-29); F-12K medium (Invitrogen, Cat. No. 21127-022); fetal bovine serum (Biological Industries, Cat. No. 04-002-1A); GlutaMAX (Gibco, Cat. No. 35050-061); 0.25% trypsin-EDTA (Invitrogen, Cat. No. 25200-072); CellTiter-Glo kit (Promega, Cat. No. G7558).
Experimental procedure: (1) F-12K medium, fetal bovine serum and GlutaMAX were formulated into a complete medium for culturing LoVo cells; (2) well-grown LoVo cells were taken, digested with trypsin and transferred to a centrifuge tube, and centrifuged; the supernatant was discarded, and cells were resuspended by adding a fresh medium and counted by a Vi-CELL XR cell counter; the density of the cell suspension was adjusted to 25,000 to 30,000 cells/mL, and the cell suspension was added at 100 μL/well in a 96-well cell culture plate, while a blank control group was set up with no cells added, and the cell culture plate was incubated in a carbon dioxide incubator overnight; (3) a DMSO solution of the compound to be tested was dispensed into the above 96-well cell culture plate using an HP D300 ultra-micro sampler, with 0.5 μL of the solution per well and 10 concentrations for each compound (3× dilution), while a DMSO control group with no compound added was set up, and the plate was continued to be incubated in a carbon dioxide incubator for 96 hours; (4) the cell culture plate was taken out and equilibrated to room temperature, with 100 μL of a CellTiter-Glo reagent added to each well, and then the plate was kept away from light, shaken for 10 minutes and then incubated for 10 minutes; (5) the cell culture plate was put into EnSpire for plate reading, and the luminescence value RLU was recorded.
Data processing: (1) The inhibition rate was calculated from the luminescence values: “RLUDMSO” is the luminescence value of the DMSO control group without compound, “RLUblank” is the luminescence value of the blank control group without cells, and “RLUcompound” is the luminescence value of the compound test group, and the inhibition rate=[1−(RLUcompound−RLUblank)/(RLUDMSO−RLUblank)]×100%; (2) with curve fitting using the Excel add-on XLFit, the IC50 value was calculated.

[1] abbreviates: LoVo cells, 96 hours, CellTiter-Glo.

In general, IC50 refers to the concentration that gives 50% inhibition. Regarding `C[C@@H]1COCCN1c1nc(-c2nc3ccccc3[nH]2)nc2c1ccn2S(C)(=O)=O` [Compound 27, (R)-4-(2-(1H-benzo[d]imidazol-2-yl)-7-(methylsulfonyl)-7H-pyrrolo[2,3-d]pyrimidin-4-yl)-3-methylmorpholine], under setting [1], the concentration for half-maximal inhibition (IC50) was determined as 0.62 µM and the “Max Inhibition” value is recorded as 94%.
Consider `C[C@@H]1COCCN1c1cc(-c2ccnc3[nH]ccc23)nc2c1ccn2S(=O)(=O)C1CC1` [Compound 15, (R)-4-(1′-(cyclopropylsulfonyl)-1H,1′H-[4,6′-dipyrrolo[2,3-b]pyridin]-4′-yl)-3-methylmorpholine], for which, under setting [1], the half-inhibitory concentration (IC50) came out at 1.27 µM and the Emax was 94%.
As to `CCS(=O)(=O)n1ccc2c(N3CCOC[C@H]3C)nc(-c3ccnc4[nH]ccc34)nc21` [Compound 33, (R)-4-(7-(ethylsulfonyl)-2-(1H-pyrrolo[2,3-b]pyridin-4-yl)-7H-pyrrolo[2,3-d]pyrimidin-4-yl)-3-methylmorpholine], under setting [1], the 50% inhibitory concentration (IC50) was 0.29 µM and the “Max Inhibition” value was 92%.
For `C[C@@H]1COCCN1c1cc(-c2cncc3[nH]ccc23)nc2c1ccn2S(C)(=O)=O` [Compound 3, (R)-3-methyl-4-(1-(methylsulfonyl)-6-(1H-pyrrolo[2,3-c]pyridin-4-yl)-1H-pyrrolo[2,3-b]pyridin-4-yl)morpholine], in that order: 0.43 µM and 93%.
Consider `C[C@@H]1COCCN1c1cc(-c2cc(F)cc3[nH]ccc23)nc2c1ccn2S(C)(=O)=O` [Compound 7, (R)-4-(6-(6-fluoro-1H-indol-4-yl)-1-(methylsulfonyl)-1H-pyrrolo[2,3-b]pyridin-4-yl)-3-methylmorpholine], for which, under setting [1], the half-maximal inhibitory concentration (IC50) worked out at 0.42 µM and the “Max Inhibition” value is listed as 95%.
Consider `CNc1nc2ccccc2n1-c1nc(N2CCOC[C@H]2C)c2ccn(S(C)(=O)=O)c2n1` [Compound 28, (R)—N-methyl-1-(4-(3-methylmorpholinyl)-7-(methylsulfonyl)-7H-pyrrolo[2,3-d]pyrimidin-2-yl)-1H-benzo[d]imidazol-2-amine], for which, under setting [1], the half-maximal inhibitory concentration (IC50) was determined as 0.1 µM and the Emax was determined as 92%.
For `C[C@@H]1COCCN1c1nc(-c2ccnc3[nH]ccc23)nc2c1ccn2S(=O)(=O)CCO` [Compound 21, (R)-2-((4-(3-methylmorpholinyl)-2-(1H-pyrrolo[2,3-b]pyridin-4-yl)-7H-pyrrolo[2,3-d]pyrimidin-7-yl)sulfonyl)ethanol], in that order: 0.71 µM and 92%.
As to `CC(n1ccc2c(N3CCOC[C@H]3C)cc(-c3ccnc4[nH]ccc34)nc21)S(C)(=O)=O` (some centres unmarked) [Compound 5′, reference compound], under setting [1], the half-inhibitory concentration (IC50) came to 1.88 µM.
Take `C[C@@H]1COCCN1c1nc(-c2ccnc3[nH]ccc23)nc2c1ncn2S(C)(=O)=O` [Compound 22, (R)-3-methyl-4-(9-(methylsulfonyl)-2-(1H-pyrrolo[2,3-b]pyridin-4-yl)-9H-purin-6-yl)morpholine]: under setting [1], the IC50 was 1.04 µM and the “Max Inhibition” value is given as 93%.
Regarding `C[C@@H]1COCCN1c1nc(-c2cc(C#N)cc3[nH]ccc23)nc2c1ccn2S(C)(=O)=O` [Compound 30, (R)-4-(4-(3-methylmorpholinyl)-7-(methylsulfonyl)-7H-pyrrolo[2,3-d]pyrimidin-2-yl)-1H-indol-6-carbonitrile], under setting [1], the half-inhibitory concentration (IC50) worked out at 1.06 µM and the Emax stood at 93%.
As to `C[C@@H]1COCCN1c1cc(-c2ccnc3[nH]ccc23)nc2c1ncn2S(C)(=O)=O` [Compound 24, (R)-3-methyl-4-(3-(methylsulfonyl)-5-(1H-pyrrolo[2,3-b]pyridin-4-yl)-3H-imidazo[4,5-b]pyridin-7-yl)morpholine], under setting [1], the IC50 was 1.02 µM and the “Max Inhibition” value is reported as 92%.
As to `C[C@@H]1COCCN1c1nc(-c2cccc3[nH]ccc23)nc2c1ccn2S(C)(=O)=O` [Compound 18, (R)-4-(2-(1H-indol-4-yl)-7-(methylsulfonyl)-7H-pyrrolo[2,3-d]pyrimidin-4-yl)-3-methylmorpholine], under setting [1], the IC50 is 0.25 µM and the “Max Inhibition” value is reported as 92%.
For `COc1cc(-c2nc(N3CCOC[C@H]3C)c3ccn(S(C)(=O)=O)c3n2)c2cc[nH]c2c1` [Compound 32, (R)-4-(2-(6-methoxy-1H-indol-4-yl)-7-(methylsulfonyl)-7H-pyrrolo[2,3-d]pyrimidin-4-yl)-3-methylmorpholine], in that order: 0.34 µM and 95%.
In the case of `C[C@@H]1COCCN1c1nc(-c2cncc3[nH]ccc23)cc2c1ncn2S(C)(=O)=O` [Compound 25, (R)-3-methyl-4-(1-(methylsulfonyl)-6-(1H-pyrrolo[2,3-c]pyridin-4-yl)-1H-imidazo[4,5-c]pyridin-4-yl)morpholine], under setting [1], the IC50 was found to be 0.24 µM and the “Max Inhibition” value stood at 89%.
For `C[C@@H]1COCCN1c1nc(-c2cc(F)cc3[nH]ccc23)nc2c1ccn2S(C)(=O)=O` [Compound 20, (R)-4-(2-(6-fluoro-1H-indol-4-yl)-7-(methylsulfonyl)-7H-pyrrolo[2,3-d]pyrimidin-4-yl)-3-methylmorpholine], in that order: 0.49 µM and 91%.
Regarding `C[C@@H]1COCCN1c1nc(-c2cncc3[nH]ccc23)nc2c1ccn2S(C)(=O)=O` [Compound 19, (R)-3-methyl-4-(7-(methylsulfonyl)-2-(1H-pyrrolo[2,3-c]pyridin-4-yl)-7H-pyrrolo[2,3-d]pyrimidin-4-yl)morpholine], under setting [1], the IC50 came to 0.07 µM and the “Max Inhibition” value stood at 90%.
As to `C[C@@H]1COCCN1c1nc(-c2ccnc3[nH]ccc23)nc2c1ccn2S(C)(=O)=O` [Compound 17, (R)-3-methyl-4-(7-(methylsulfonyl)-2-(1H-pyrrolo[2,3-b]pyridin-4-yl)-7H-pyrrolo[2,3-d]pyrimidin-4-yl)morpholine], under setting [1], the IC50 came to 0.17 µM and the “Max Inhibition” value amounted to 93%.
The like results for `Cc1cc(-c2nc(N3CCOC[C@H]3C)c3ccn(S(C)(=O)=O)c3n2)c2cc[nH]c2c1` [Compound 29, (R)-3-methyl-4-(2-(6-methyl-1H-indol-4-yl)-7-(methylsulfonyl)-7H-pyrrolo[2,3-d]pyrimidin-4-yl)morpholine] were, in that order, 0.38 µM and 94%.
Turning to `CC(C)S(=O)(=O)n1ccc2c(N3CCOC[C@H]3C)cc(-c3ccnc4[nH]ccc34)nc21` [Compound 14, (R)-4-(1′-(isopropylsulfonyl)-1H,1′H-[4,6′-dipyrrolo[2,3-b]pyridin]-4′-yl)-3-methylmorpholine], under setting [1], the half-maximal inhibitory concentration (IC50) came out at 2.13 µM and the Emax amounted to 93%.
Consider `C[C@@H]1COCCN1c1nc(-c2ccnc3[nH]ccc23)nc2c1ccn2S(=O)(=O)N(C)C` [Compound 34, (R)—N,N-dimethyl-4-(3-methylmorpholinyl)-2-(1H-pyrrolo[2,3-b]pyridin-4-yl)-7H-pyrrolo[2,3-d]pyrimidine-7-sulfamide], for which, where the note is “LoVo, 96 h”, the IC50 turned out to be 0.29 µM and the Emax came out at 93%.
On to `C[C@@H]1COCCN1c1nc(-c2ccnc3[nH]ccc23)nc2c1cnn2S(C)(=O)=O` [Compound 23, (R)-3-methyl-4-(1-(methylsulfonyl)-6-(1H-pyrrolo[2,3-b]pyridin-4-yl)-1H-pyrazolo[3,4-d]pyrimidin-4-yl)morpholine], for which the “Max Inhibition” value under setting [1] is 92%.
Turning to `C[C@@H]1COCCN1c1cc(-c2ccnc3[nH]ccc23)nc2c1ccn2S(=O)(=O)N(C)C` [Compound 16, (R)—N,N-dimethyl-4′-(3-methylmorpholinyl)-1H,1′H-[4,6′-dipyrrolo[2,3-b]pyridine]-1′-sulfamide], under setting [1], the half-maximal inhibitory concentration (IC50) was 1.82 µM and the Emax was 93%.
Consider `C[C@@H]1COCCN1c1nc(-c2cc(Cl)cc3[nH]ccc23)nc2c1ccn2S(C)(=O)=O` [Compound 31, (R)-4-(2-(6-chloro-1H-indol-4-yl)-7-(methylsulfonyl)-7H-pyrrolo[2,3-d]pyrimidin-4-yl)-3-methylmorpholine], for which, under setting [1], the IC50 was 0.57 µM and the “Max Inhibition” value is recorded as 93%.
Take `C[C@@H]1COCCN1c1cc(-c2ccnc3[nH]ccc23)nc2c1ccn2CS(C)(=O)=O` [Compound 4′, reference compound]: the IC50 under setting [1] was 2.34 µM.
Consider `C[C@@H]1COCCN1c1cc(-c2cccc3[nH]ccc23)nc2c1ccn2S(C)(=O)=O` [Compound 2, (R)-4-(6-(1H-indol-4-yl)-1-(methylsulfonyl)-1H-pyrrolo[2,3-b]pyridin-4-yl)-3-methylmorpholine], for which, under setting [1], the IC50 was determined as 0.5 µM and the “Max Inhibition” value is listed as 94%.
